Test results published in publication PMC8037310, “Thrombin-Derived Peptides Potentiate the Activity of Gram-Positive-Specific Antibiotics against Gram-Negative Bacteria” (Molecules, 2021).
Values joined by “and” are separate entries in the source; they are usually repeats but may differ in a detail not shown here. Identical values can stand only once. Like-named read-outs stand apart in the source and are kept apart here. Peptide text beside a SMILES is read from it.

Legend:
[1] = system: E. coli BW25113; experiment: Checkerboard assay with erythromycin; type: cell-based, Escherichia coli; conditions: for MSCery: erythromycin concentration in the combination with the synergist giving the lowest FICi, E. coli BW25113; for MIC of the peptide (MICpep): synergist alone, from checkerboard with erythromycin; for MIC of the peptide (MICpep) / MSCpeptide, minimum synergistic concentration: E. coli BW25113, LB, 20 h 37 °C; for MSCpeptide, minimum synergistic concentration: synergist concentration in the combination with erythromycin giving the lowest FICi, OD600
[2] = system: E. coli EQASmcr-2 (EQAS 2016 KP37); type: cell-based, Escherichia coli; conditions: for FICi: EQASmcr-2 (EQAS 2016 KP37, 20 h); for MICpeptide: peptide alone; for MICpeptide / MSCpeptide / MSCrif: E. coli EQASmcr-2; for MSCpeptide: peptide concentration in the combination with rifampicin giving the lowest FICi; for MSCrif: rifampicin concentration in the combination giving the lowest FICi
[3] = system: E. coli EQASmcr-1 (EQAS 2016 412016126); type: cell-based, Escherichia coli; conditions: for MICpeptide: peptide alone; for MICpeptide / MSCpeptide / MSCrif: E. coli EQASmcr-1; for MSCpeptide: peptide concentration in the combination with rifampicin giving the lowest FICi; for MSCrif: rifampicin concentration in the combination giving the lowest FICi
[4] = system: E. coli BW25113; type: cell-based, Escherichia coli; conditions: for MICpep: synergist alone, E. coli BW25113, from checkerboard with rifampicin; for MSCpep: synergist concentration in the combination with rifampicin giving the lowest FICi
[5] = system: E. coli W3110; type: cell-based, Escherichia coli; conditions: for MICpeptide: peptide alone; for MICpeptide / MSCpeptide / MSCrif: E. coli W3110; for MSCpeptide: peptide concentration in the combination with rifampicin giving the lowest FICi; for MSCrif: rifampicin concentration in the combination giving the lowest FICi; for FICi: with rifampicin vs E. coli W3110, synergy defined as FICi ≤ 0.5
[6] = system: P. aeruginosa ATCC27853; experiment: Checkerboard assay with rifampicin; type: cell-based, Pseudomonas aeruginosa; conditions: for MICpeptide: peptide alone; for MICpeptide / MSCpeptide / MSCrif: P. aeruginosa ATCC27853; for MSCpeptide: peptide concentration in the combination with rifampicin giving the lowest FICi; for MSCrif: rifampicin concentration in the combination giving the lowest FICi; for FICi: with rifampicin vs P. aeruginosa ATCC27853, synergy defined as FICi ≤ 0.5
Protocol: (§1) All peptides were screened for antimicrobial activity against E. coli BW25113, E. coli ATCC25922, and E. coli W3110. A select group of the peptides was further tested against E. coli mcr-1, E. coli EQASmcr-1 (EQAS 2016 412016126), E. coli EQASmcr-2 (EQAS 2016 KP37), E. coli EQASmcr-3 (EQAS 2017 2013-SQ352), K. pneumoniae ATCC13883, P. aeruginosa ATCC27853, and A. baumannii ATCC17978. The antimicrobial assay was performed according to CLSI guidelines. Bacteria were plated out directly from their glycerol stocks on blood agar plates, incubated overnight at 37 °C, and then kept in the fridge. The blood agar plates were only used for 2 weeks and then replaced.
(§2) One colony from a blood agar plates was inoculated in Lysogeny Broth (LB) at 37 °C until a 0.5 optical density at 600 nm (OD600) was reached (compared to the sterility control of LB). The bacterial suspension was diluted in fresh LB to 2.0 × 10^6 CFU/mL. The serial dilutions were prepared in polypropylene microtiter plates: a stock of the test compounds was prepared with a 2x final concentration in LB. Moreover, 100 µL of the stock was added to the wells of the top row of which 50 µL was used for the serial dilution. The bottom row of each plate was used as the positive (50 µL of LB) and negative controls (100 µL of LB) (6 wells each). Furthermore, 50 µL of the 2.0 × 10^6 CFU/mL bacterial stock was added to each well except for the negative controls, adding up to a total volume of 100 µL per well. The plates were sealed with a breathable seal and incubated for 20 h at 37 °C and 600 rpm.
(§3) Two 96-well plates were required per compound. A serial dilution of the compound was performed on two plates from row A–G using with LB as medium. Row H was filled with 25 µL medium. On a separate plate a negative control (8 wells, 100 μL medium) was prepared. For all concentrations of antibiotic a specific stock was prepared. 25 µL medium was added to the 0 µg/mL antibiotic columns (plate I, column 1–3). Of each antibiotic stock 25 µL was added to three columns to obtain triplicates for every condition. Both plates contained 50 µL in each well to which 50 µL bacterial stock was added (see the protocol of the MIC assays) and the plates were sealed. After incubation for 20 h at 37 °C while shaking, the breathable seals were removed and the density of the bacterial suspensions measured at 600 nm (OD600) using a Tecan Spark plate reader. The OD600 values were transformed to a 2D gradient with the negative control as minimum and the positive control (wells G1, G2, and G3) as maximum in excel. The FICi was calculated using Equation (1) with a FICi ≤ 0.5 indicating synergy. FICi = (MSCa/MICa) + (MSCb/MICb),(1)
(§4) Calculation of the FICi: MSCa = concentration of the […] in combination with the antibiotic that results in the lowest FICi. MICa = MIC of the antibiotic without synergist (row G). MSCb = concentration of the synergist in combination with the antibiotic that results in the lowest FICi. MICb = MIC of the synergist itself (Column 1–3, plate I).

[7] = system: E. coli BW25113; experiment: microbe, parasite or virus in culture; type: cell-based, Escherichia coli; conditions: for MICpeptide: synergist alone, E. coli BW25113, from checkerboard with vancomycin; for MSCpeptide: synergist concentration in the combination with vancomycin giving the lowest FICi; for MSCpeptide / MSCvanco: E. coli BW25113; for MSCvanco: vancomycin concentration in the combination giving the lowest FICi
[8] = system: defibrinated sheep blood (red blood cells); experiment: Hemolysis assay; type: cell-based; conditions: 200 µg/mL compound, 20 h incubation at 37 °C with defibrinated sheep blood, PBS 0.002% Tween20, absorbance 415 nm, relative to 0.1% Triton X-100; n=3 technical replicates
Procedure, shortened: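 % hemolysis is supernatant absorbance at 415 nm, minus the buffer-only background, relative to 0.1% Triton X-100 lysis. Compound dilutions (200–1.56 µg/mL before adding cells) were incubated with an equal volume of red cells for 20 h at 37 °C and 500 rpm. Cells were washed and normalized in PBS/0.002% Tween20 to about 2.5 A415 at full lysis.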

[9] = system: A. baumannii ATCC17978; experiment: microbe, parasite or virus in culture; type: cell-based, Acinetobacter baumannii; conditions: for MICpeptide: peptide alone; for MICpeptide / MSCpeptide / MSCrif: A. baumannii ATCC17978; for MSCpeptide: peptide concentration in the combination with rifampicin giving the lowest FICi; for MSCrif: rifampicin concentration in the combination giving the lowest FICi; for FICi: with rifampicin vs A. baumannii ATCC17978
Protocol: as §1, §2, §3, §4

[10] = system: K. pneumoniae ATCC13883; experiment: Checkerboard assay with rifampicin; type: cell-based, Klebsiella pneumoniae; conditions: K. pneumoniae ATCC13883; for MICpeptide: peptide alone; for MSCpeptide: peptide concentration in the combination with rifampicin giving the lowest FICi; for MSCrif: rifampicin concentration in the combination giving the lowest FICi
Protocol: as §1, §2, §3, §4

Row | SMILES | MSCery [1] [µg/mL] | MIC of the peptide (MICpep) [1] [µg/mL] | MSCpeptide, minimum synergistic concentration [1] | FICi [2] | MICpeptide [2] [µg/mL] | MSCpeptide [2] [µg/mL] | MSCrif [2] [µg/mL] | MICpeptide [3] [µg/mL] | MSCpeptide [3] [µg/mL] | MSCrif [3] [µg/mL] | MICpep [4] [µg/mL] | MSCpep ([4]; E. coli BW25113) [µg/mL] | MICpeptide [5] [µg/mL] | MSCpeptide [5] [µg/mL] | MSCrif [5] [µg/mL] | FICi [5] | MICpeptide [6] [µg/mL] | MSCpeptide [6] [µg/mL] | MSCrif [6] [µg/mL] | FICi [6] | also measured
1 | CC[C@H](C)[C@H](NC(=O)[C@@H](NC(=O)[C@H](CCCCN)NC(=O)[C@H](CCC(N)=O)NC(=O)[C@@H](NC(=O)[C@H](Cc1c[nH]c2ccccc12)NC(=O)[C@H](CCCCN)NC(=O)[C@H](CCCCN)NC(=O)[C@H](CC(C)C)NC(=O)[C@H](C)NC(=O)[C@H](Cc1ccccc1)NC(=O)[C@@H](N)C(C)C)[C@@H](C)CC)C(C)C)C(N)=O [peptide 10] (H-VFALKKWIQKVI-NH2) | 3.125 | 100 | 12.5 µg/mL | 0.1406 | 100 | 12.5 | 0.125 | 200 | 12.5 | 0.125 | 100 | 12.5 | 25 | 12.5 | 0.125 | > 0.5 | > 200 | 100 | 4 | 0.2500 | FICi ([3]; with rifampicin vs E. coli EQASmcr-1): 0.0781; FICi ([7]; BW25113, 20 h): 0.1563; MICpeptide [7]: 100 µg/mL; MSCpeptide [7]: 12.5 µg/mL; MSCvanco [7]: 12.5 µg/mL; Hemolysis [8]: 3.8% and 4%; MICpeptide [9]: 50 µg/mL; MSCpeptide [9]: 3.125 µg/mL; MSCrif [9]: 0.125 µg/mL; FICi [9]: 0.1250; MICpeptide [10]: > 200 µg/mL; MSCpeptide [10]: 12.5 µg/mL; MSCrif [10]: 1 µg/mL
2 | CC[C@H](C)[C@H](NC(=O)[C@@H](NC(=O)[C@H](CCCCN)NC(=O)[C@H](CCC(N)=O)NC(=O)[C@@H](NC(=O)[C@H](Cc1c[nH]c2ccccc12)NC(=O)[C@H](CCCCN)NC(=O)[C@H](CCCCN)NC(=O)[C@H](CC(C)C)NC(=O)[C@H](CCCNC(=N)N)NC(=O)[C@H](Cc1ccccc1)NC(=O)[C@@H](N)C(C)C)[C@@H](C)CC)C(C)C)C(N)=O [peptide 6] (H-VFRLKKWIQKVI-NH2) | 12.5 | 12.5 | 3.125 µg/mL and 3.13 µg/mL | 0.0938 | 100 | 6.25 | 0.25 | 100 | 6.25 | 0.125 | 25 | 3.125 | 6.25 | 3.125 | 0.125 | > 0.5 | 50 | 25 | 1 | > 0.5 | FICi ([3]; EQASmcr-1 (EQAS 2016 412016126, 20 h)): 0.0781; FICi ([4]; BW25113, 20 h): 0.1563; MSCrif ([4]; rifampicin concentration in the combination giving the lowest FICi, E. coli BW25113): 0.25 µg/mL; MICpeptide [7]: 25 µg/mL; MSCpeptide [7]: 3.125 µg/mL; MSCvanco [7]: 25 µg/mL; Hemolysis [8]: 4.0%; MICpeptide [9]: 50 µg/mL; MSCpeptide [9]: 3.125 µg/mL; MSCrif [9]: 0.125 µg/mL; FICi [9]: 0.1250; MICpeptide [10]: 100 µg/mL; MSCpeptide [10]: 3.125 µg/mL; MSCrif [10]: 1 µg/mL
